# Laboratory results from PubChem BioAssay AID652252 (Sanford-Burnham Center for Chemical Genomics, 2013).
# Activity calls are given as the source filed them. How the calls were made is not given here.
# Tested on: HT1080 cells viability, ATPLite luminescence, overnight
# Test: HT1080 parental cell cytotoxicity, dose response, cytotoxicity control for MT1-MMP activation inhibitor project, ATPLite luminescence, set 1 (AID 652252)
row,Structure (SMILES),IC50
1,N#CC(C#N)=NNc1ccc([N+](=O)[O-])cc1,> 80 µM (inactive)
2,CN1C(=O)/C(=C2/C=Cc3ccccc3N2CCCS(=O)(=O)O)SC1=S,> 80 µM (inactive)
3,Nc1nc(-c2ccc(Cl)cc2)c(N=Nc2ccc(S(=O)(=O)N3CCOCC3)cc2)s1,30.3 µM (inactive)
4,O=C(NNc1c2ccccc2nc2ccccc12)c1cc2ccccc2cc1O,> 80 µM (inactive)
5,CCN(CC)c1ccc(C(=C2C=CC(=[N+](CC)CC)C=C2)c2ccc(N(CC)CC)cc2)cc1,> 80 µM (inactive)
6,CNc1c(C(=O)O)ccc2c1C(=O)c1ccccc1C2=O,> 80 µM (inactive)
7,CCN(CC)c1ccc(/C=C2\C(=O)N(c3nnc(C)c(=O)[nH]3)N=C2C)cc1,> 80 µM (inactive)
8,CC1=NN(c2ccccc2)C(=O)/C1=C/C=C/C=C/N(C)C,10.2 µM
9,CN=C1C=C/C(=N/N=c2\ccn(O)cc2C)C=C1C,> 80 µM (inactive)
10,O=C(NNc1c2ccccc2nc2ccccc12)c1ccc(Cl)cc1,> 40 µM (inactive)
11,COc1ccccc1C(=O)NC(=S)/C=C1/N(C)c2ccccc2C1(C)C,> 80 µM (inactive)
12,Cc1c(C(=O)OCC(=O)NCC2CCCO2)oc2ccccc12 (configuration not stated),> 40 µM (inactive)
13,CC[n+]1c(/C=C/N(C)c2ccccc2)sc2ccc(Cl)cc21,> 80 µM (inactive)
14,CCOc1ccc2nc(N=Nc3c(O)[nH]c(=S)[nH]c3=O)sc2c1,38.1 µM (inactive)
15,CN(C)c1ccc(C=c2c3ccccc3n3c2c2c([n+]3C)CCCC2)cc1,> 80 µM (inactive)
16,COc1ccc(C)cc1N=Nc1ccc(O)c2ncccc12,> 80 µM (inactive)
17,Nc1ccc(NC(=O)c2ccccc2)c2c1C(=O)c1ccccc1C2=O,> 80 µM (inactive)
18,CC1=NN(c2ccccc2)C(=O)C1N=Nc1ccc(N)cc1 (configuration not stated),> 80 µM (inactive)
19,O=S(=O)(O)c1cc(Cl)cc(N=Nc2ccc(O)cc2O)c1O,1.42 µM
20,CC(=O)Oc1ccc2oc(/C=C/N(C)C)c([N+](=O)[O-])c2c1,> 80 µM (inactive)
21,CCn1c(=O)c(=O)[nH]c2cc(C(=O)NC3CCCc4ccccc43)ccc21 (configuration not stated),> 80 µM (inactive)
22,O=C1c2cccc(NCCCNCCO)c2C(=O)c2cccc(NCCCNCCO)c21,> 80 µM (inactive)
23,CNc1ccccc1C(C)(C)c1cc(-c2cccc(OC)c2)no1,> 80 µM (inactive)
24,Cc1cc(N(CCO)CCO)ccc1N=Nc1cc(F)ccc1F,> 80 µM (inactive)

row,Structure (SMILES),IC50
1,CC1=NN(c2ccccc2)C(=O)/C1=C/C=C/c1ccc(N(C)C)cc1,> 80 µM (inactive)
2,CCCN1/C(=C2/SC(=S)N(CC)C2=O)C=Cc2ccccc21,> 80 µM (inactive)
3,COc1ccc(-c2oc3ccc(-c4ccc(OC)nc4)cc3c2C#CC2(O)CCCCC2)cc1,> 80 µM (inactive)
4,Cc1cccc[n+]1CC(=O)/C=C1\N(C)c2ccccc2C1(C)C,70.6 µM (inactive)
5,CC1CC(C)CN(C(=O)c2ccc3c(c2NCCO)C(=O)c2ccccc2C3=O)C1 (configuration not stated),> 80 µM (inactive)
6,COc1ccc(C)cc1Nc1nc(-c2c(C)[nH]c3ccccc23)cs1,> 80 µM (inactive)
7,COc1ccc(Nc2ccccc2N)cc1,2.38 µM
8,CCOC(=O)C1=C(C)N=c2s/c(=C\c3ccc(OC(C)=O)c(OCC)c3)c(=O)n2C1/C=C/c1ccccc1 (configuration not stated),3.54 µM
9,Nc1nc(-c2ccccc2)c(N=Nc2cccc3ccccc23)s1,> 80 µM (inactive)
10,O=C1c2ccccc2C(=O)c2c(O)c(O)cc(O)c21,> 80 µM (inactive)
11,C/C(=C/c1oc2ccc(O)cc2c1[N+](=O)[O-])N(C)C,> 80 µM (inactive)
12,O=Nc1c(-c2c(O)[nH]c3cc(Br)ccc23)[nH]c2ccccc12,66.1 µM (inactive)
13,Cc1ccc(S(=O)(=O)/N=C2\C=C(NS(=O)(=O)c3ccccc3)C(=O)c3ccccc32)c(C)c1,> 80 µM (inactive)
14,Cc1ccccc1C1=C/C(=C(\SS/C(C(=O)c2ccc(OCC(=O)O)c(Cl)c2Cl)=C2\C=C(c3ccccc3C)SS2)C(=O)c2ccc(OCC(=O)O)c(Cl)c2Cl)SS1,51.8 µM (inactive)
15,COc1cc(N(C)C)ccc1C=c1c2ccccc2n2c1cc(-c1ccccc1)[n+]2C,1.43 µM
16,C[N+]1=C(/C=C/Nc2ccccc2)C(C)(C)c2ccccc21,16.9 µM
17,CC1(C)CCCN(C(=O)c2ccc3c(c2NCCO)C(=O)c2ccccc2C3=O)C1,> 80 µM (inactive)
18,CN1C2=CC=CC=CC2=[N+](C)C12C=CC(=[N+]([O-])[O-])C=C2[N+](=O)[O-] (configuration not stated),> 80 µM (inactive)
19,CN1C(=O)/C(=C\c2cc(N=Nc3ccccc3)ccc2O)SC1=S,> 80 µM (inactive)
20,CCCN1C(=O)/C(=C2/C=Cc3ccccc3N2CC)SC1=S,64.9 µM (inactive)
21,CNc1ccc2nc3ccccc3[n+](C)c2c1,11.4 µM
22,CC1=C/C(=C(/c2cc(C)c(O)c(Br)c2)c2ccccc2S(=O)(=O)O)C=C(Br)C1=O,> 80 µM (inactive)
23,CNc1ccccc1C(C)(C)c1cc(-c2cccc(Br)c2)no1,> 80 µM (inactive)
